Results published in PMC11995724, “Antibiotic target discovery by integrated phenotypic and activity-based profiling of electrophilic fragments” (Cell chemical biology, 2025).

assay: in vitro; details: human, hek293t cells

Structure (SMILES)	viability at 48 h, 25 µM
COC(=O)c1c(C)[nH]c(C(=O)C(C)Cl)c1C (stereo not shown) [10-D22, methyl 5-(2-chloropropanoyl)-2,4-dimethyl-1H-pyrrole-3-carboxylate]	83.7%
CC(C)Oc1ccc2[nH]cc(C(=O)CCl)c2c1 [10-E03, 2-chloro-1-[5-(propan-2-yloxy)-1H-indol-3-yl]ethan-1-one]	0.825%
Cc1cc(C)cc(-n2c(C)cc(C(=O)CCl)c2C)c1 [10-E04, 2-chloro-1-[1-(3,5-dimethylphenyl)-2,5-dimethyl-1H-pyrrol-3-yl]ethan-1-one]	19.1%
O=C(CCl)c1c(-c2ccccc2)[nH]c2ccccc12 [10-E05, 2-chloro-1-(2-phenyl-1H-indol-3-yl)ethan-1-one]	14.1%
Cc1cc(C(=O)C(C)Cl)c(C)n1Cc1ccco1 (stereo not shown) [10-E06, 2-chloro-1-{1-[(furan-2-yl)methyl]-2,5-dimethyl-1H-pyrrol-3-yl}propan-1-one]	105%
CSc1ccc(C(=O)CCl)cc1 [10-E07, 2-chloro-1-[4-(methylsulfanyl)phenyl]ethan-1-one]	1.88%
CC(C)C(=O)Nc1ccc(C(=O)C(C)Cl)cc1 (stereo not shown) [10-E08, N-[4-(2-chloropropanoyl)phenyl]-2-methylpropanamide]	100%
O=C(CCl)c1ccc2c(c1)CCN(C(=O)C(F)(F)F)C2 [10-E09, 1-[6-(2-chloroacetyl)-1,2,3,4-tetrahydroisoquinolin-2-yl]-2,2,2-trifluoroethan-1-one]	4.03%
Cc1cc(C(=O)C(C)Cl)c(C)n1-c1ccc(OC(F)F)cc1 (stereo not shown) [10-E10, 2-chloro-1-{1-[4-(difluoromethoxy)phenyl]-2,5-dimethyl-1H-pyrrol-3-yl}propan-1-one]	84.6%
O=C(CCl)C1CCCC2(CC2)C1 (stereo not shown) [10-E11, 2-chloro-1-{spiro[2.5]octan-5-yl}ethan-1-one]	79.6%
CCn1c(-c2ccccc2)c(C(=O)CCl)c2ccccc21 [10-E12, 2-chloro-1-(1-ethyl-2-phenyl-1H-indol-3-yl)ethan-1-one]	0.509%
CCn1ncc(C(=O)CCl)n1 [10-E13, 2-chloro-1-(2-ethyl-2H-1,2,3-triazol-4-yl)ethan-1-one]	87.2%
Cn1c(N)c(C(=O)CCl)c(=O)n(C)c1=O [10-E14, 6-amino-5-(2-chloroacetyl)-1,3-dimethyl-1,2,3,4-tetrahydropyrimidine-2,4-dione]	89.9%
O=C(CCl)Cc1ccc(Cl)c(Cl)c1 [10-E15, 1-chloro-3-(3,4-dichlorophenyl)propan-2-one]	1.56%
O=C(CCl)c1cc(Cl)ccc1Cl [10-E16, 2-chloro-1-(2,5-dichlorophenyl)ethan-1-one]	4.26%
O=C(CCl)Cc1cccc(Cl)c1 [10-E17, 1-chloro-3-(3-chlorophenyl)propan-2-one]	1.29%
CCS(=O)(=O)N1CCc2cc(C(=O)CCl)ccc21 [10-E18, 2-chloro-1-[1-(ethanesulfonyl)-2,3-dihydro-1H-indol-5-yl]ethan-1-one]	1.16%
O=C(CCl)Cc1ccc(F)cc1Cl [10-E19, 1-chloro-3-(2-chloro-4-fluorophenyl)propan-2-one]	1.31%
O=C1C=CC(=O)N1CCc1ccccc1 [10-E20, 1-(2-phenylethyl)-2,5-dihydro-1H-pyrrole-2,5-dione]	4.04%
O=C(O)C(c1ccccc1)N1C(=O)C=CC1=O (stereo not shown) [10-E21, 2-(2,5-dioxo-2,5-dihydro-1H-pyrrol-1-yl)-2-phenylacetic acid]	92.4%
O=C(O)c1csc(C(=O)CCl)c1 [10-E22, 5-(2-chloroacetyl)thiophene-3-carboxylic acid]	91.8%
COc1ccc2[nH]cc(C3=CCN(C(=O)C=CCN(C)C)CC3)c2c1 [10-F03, 4-(dimethylamino)-1-[4-(5-methoxy-1H-indol-3-yl)-1,2,3,6-tetrahydropyridin-1-yl]but-2-en-1-one]	92.2%
